Test results as given in patent US7018981B2, “Cyclic motilin receptor antagonists” (Chugai Seiyaku Kabushiki Kaisha, priority 2000, dated 2006).
Where a SMILES comes first, the peptide text is derived from it. Bridges are numbered along the chain shown (N, C = ends). [ ]: non-standard residue; d: D form. NMeTyr(3-tBu) = CN[C@@H](Cc1ccc(O)c(C(C)(C)C)c1)C(=O)O; Tyr(3-tBu) = CC(C)(C)c1cc(C[C@H](N)C(=O)O)ccc1O; Phe(4-F) = N[C@@H](Cc1ccc(F)cc1)C(=O)O; NMeLys(Me) = CNCCCC[C@H](NC)C(=O)O; NMeK = CN[C@@H](CCCCN)C(=O)O; GABA = NCCCC(=O)O; βAla = NCCC(=O)O

Legend:
motilin receptors = biological target: T1, motilin receptors (Oryctolagus cuniculus, UniProt G1T803); experiment: Motilin receptor binding test (125I motilin, rabbit duodenum protein solution); conditions: concentration inhibiting 50% of specific binding of 25 pM 125I motilin; rabbit duodenum homogenate, 2 hours at 25° C.
T1 construct: A protein solution was prepared by homogenizing the duodenum isolated from a killed rabbit; from tissue; host or cells: rabbit duodenum, mucosa stripped, homogenate
Procedure: Motilin receptor binding activities of compounds of the present invention were tested as follows [Vantrappen et al., Regul.
A protein solution was prepared by homogenizing the duodenum isolated from a killed rabbit in 50 mM Tris after stripping the mucosa. […] The difference between the radioactivity of the protein solution incubated alone and the radioactivity of the protein solution incubated with a large excess of motilin (10^−7 M) was recorded as specific binding of motilin to motilin receptors.

[1] = system: motilin-induced contraction of a sample of the longitudinal muscle of the duodenum; experiment: Contraction inhibition test: motilin-induced contraction of rabbit longitudinal duodenal muscle; type: cell-based; conditions: Oryctolagus cuniculus; concentration-dependent contraction induced by motilin; rabbit duodenal specimen in Krebs solution at 28° C.; read-out: Contraction inhibition test pA2 (converted)
Procedure: The effect of compounds of the present invention on motilin-induced contraction of a sample of the longitudinal muscle of the duodenum extracted from a rabbit was tested as follows.
A duodenal specimen (5×15 mm) extracted from a killed rabbit was suspended in the direction of the longitudinal muscle in an incubator at 28° C. filled with Krebs solution (10 ml organ bath). A mixed gas (95% O2, 5% CO2) was continuously passed through the Krebs solution and the contraction of the duodenal specimen was isotonically recorded (under a load of 1 g) via an isotonic transducer (ME-3407, ME Commercial, Tokyo, Japan). The extent of contraction of the duodenal specimen was expressed as a percentage to the contraction induced by acetylcholine at a concentration of 10^−4 M.
The effect of the compounds synthesized in Examples 1–8 and 10 on the concentration-dependent contraction induced by motilin added into the incubator was determined to calculate pA2 (see “Drug receptors” edited by Takayanagi, published by Nanzando). As a comparative example, the results of the compound of formula (5) are also shown.

T1 sequence (G1T803 1-400): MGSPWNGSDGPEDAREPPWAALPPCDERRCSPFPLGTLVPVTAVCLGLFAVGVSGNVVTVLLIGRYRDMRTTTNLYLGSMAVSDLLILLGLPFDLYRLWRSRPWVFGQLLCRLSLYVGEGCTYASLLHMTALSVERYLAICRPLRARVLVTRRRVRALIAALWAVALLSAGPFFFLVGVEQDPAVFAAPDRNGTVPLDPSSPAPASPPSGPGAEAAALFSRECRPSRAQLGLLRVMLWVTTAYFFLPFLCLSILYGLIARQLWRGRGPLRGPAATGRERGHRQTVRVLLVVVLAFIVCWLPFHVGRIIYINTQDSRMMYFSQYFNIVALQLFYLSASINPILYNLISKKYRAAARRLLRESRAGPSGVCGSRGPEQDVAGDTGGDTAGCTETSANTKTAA

| SMILES | IC50 (motilin receptors) [nM] | Kb [1] [nM] |
| --- | --- | --- |
| CC(=O)N1CCCC[C@H](N(C)C(=O)[C@@H](N)Cc2ccc(F)cc2)C(=O)N[C@@H](Cc2ccc(O)c(C(C)(C)C)c2)C(=O)NCCC1 [Example 8, (2S-(2S.13S))-N-(8-acetyl-2-(3-tert-butyl-4-hydroxyphenylmethyl)-N-methyl-1,4,8-triaza-3,14-dioxocyclotetradec-13-yl)-2-amino-3-(4-fluorophenyl)propionamide] | 0.84 | 6.31 |
| CN(C(=O)[C@@H](N)Cc1ccccc1)[C@H]1CCCCNC(=O)CCNC(=O)[C@H](Cc2ccc(O)c(C(C)(C)C)c2)NC1=O [Example 10, (2S-(2S,13S))-2-amino-N-(2-(3-tert-butyl-4-hydroxyphenylmethyl)-1,4,8-triaza-3,7,14-trioxocyclotetradec-13-yl)-3-phenyl-N-methylpropionamide] (H-F[NMeK][Tyr(3-tBu)][βAla]; lactam 2-C) | 2.2 | 12.6 |
| CN(C(=O)[C@@H](N)Cc1ccc(F)cc1)[C@H]1CCCCNC(=O)CCNC(=O)[C@H](Cc2ccc(O)c(C(C)(C)C)c2)N(C)C1=O [Example 2, (2S-(2S.13S))-2-amino-N-(2-(3-tert-butyl-4-hydroxyphenylmethyl)-1-methyl-1,4,8-triaza-3,7,14-trioxocyclotetradec-13-yl)-3-(4-fluorophenyl)-N-methylpropionamide] (H-[Phe(4-F)][NMeK][NMeTyr(3-tBu)][βAla]; lactam 2-C) | 1.4 | 1.26 |
| CN(C(=O)[C@@H](N)Cc1ccc(F)cc1)[C@H]1CCCCNC(=O)CCNC(=O)[C@H](Cc2ccc(O)c(C(C)(C)C)c2)NC1=O [Example 1, (2S-(2S,13S))-2-amino-N-(2-(3-tert-butyl-4-hydroxyphenylmethyl)-1,4,8-triaza-3,7,14-trioxocyclotetradec-13-yl)-3-(4-fluorophenyl)-N-methylpropionamide] (H-[Phe(4-F)][NMeK][Tyr(3-tBu)][βAla]; lactam 2-C) | 1.2 | 1 |
| CN(C(=O)[C@@H](N)Cc1ccc(F)cc1)[C@H]1CCCCNC(=O)CNC(=O)[C@H](Cc2ccc(O)c(C(C)(C)C)c2)NC1=O [Example 3, (2S-(2S,12S))-2-amino-N-(2-(3-tert-butyl-4-hydroxyphenylmethyl)-1,4,8-triaza-3,7,13-trioxocyclotridec-12-yl)-3-(4-fluorophenyl)-N-methylpropionamide] (H-[Phe(4-F)][NMeK][Tyr(3-tBu)]G; lactam 2-C) | 0.52 | 6.31 |
| CN1CCC(=O)NCCCC[C@H](N(C)C(=O)[C@@H](N)Cc2ccc(F)cc2)C(=O)N[C@@H](Cc2ccc(O)c(C(C)(C)C)c2)C1=O [Example 4, (2S-(2S,13S))-2-amino-N-(2-(3-tert-butyl-4-hydroxyphenylmethyl)-4-methyl-1,4,8-triaza-3,7,14-trioxocyclotetradec-13-yl)-3-(4-fluorophenyl)-N-methylpropionamide] | 0.78 | 1 |
| CC(C)(C)c1cc(C[C@@H]2NC(=O)[C@@H](NC(=O)[C@@H](N)Cc3ccc(F)cc3)CCCCNC(=O)CCNC2=O)ccc1O [Example 7, (2S,14S)-13-(2S-2-amino-3-(4-fluorophenyl)propylamino)-2-(3-tert-butyl-4-hydroxyphenylmethyl)-1,4,8-triaza-3,7,14-trioxocyclotetradecane] (H-[Phe(4-F)]K[Tyr(3-tBu)][βAla]; lactam 2-C) | 4.5 | 10 |
| CN1CCCC[C@H](N(C)C(=O)[C@@H](N)Cc2ccc(F)cc2)C(=O)N[C@@H](Cc2ccc(O)c(C(C)(C)C)c2)C(=O)NCCC1=O [Example 5, (2S-(2S,13S))-2-amino-N-(2-(3-tert-butyl-4-hydroxyphenylmethyl)-8-methyl-1,4,8-triaza-3,7,14-trioxocyclotetradec-13-yl)-3-(4-fluorophenyl)-N-methylpropionamide] (H-[Phe(4-F)][NMeLys(Me)][Tyr(3-tBu)][βAla]; lactam 2-C) | 1.4 | 0.126 |
| CN(C(=O)[C@@H](N)Cc1ccc(F)cc1)[C@H]1CCCCNC(=O)CCCNC(=O)[C@H](Cc2ccc(O)c(C(C)(C)C)c2)NC1=O [Example 6, (2S-(2S,14S))-2-amino-N-(2-(3-tert-butyl-4-hydroxyphenylmethyl)-1,4,9-triaza-3,8,15-trioxocyclopentadec-14-yl)-3-(4-fluorophenyl)-N-methylpropionamide] (H-[Phe(4-F)][NMeK][Tyr(3-tBu)][GABA]; lactam 2-C) | 0.87 | 3.16 |
